According to article PMC10531095, “Photonics of Some Monomethine Cyanine Dyes in Solutions and in Complexes with Biomolecules” (International Journal of Molecular Sciences, 2023):

Experiments:
HSA = target: T1, HSA (Homo sapiens, UniProt P02768); assay: Quenching of HSA intrinsic fluorescence by MCD, synchronous fluorescence scanning; assay type: binding; conditions: for decrease of the intensity of the SFS band of HSA, tyrosine: Δλ = 15 nm; for decrease of the intensity of the SFS band of HSA, tyrosine / decrease of the intensity of the SFS band of HSA, tryptophan: cMCD up to 5.3 × 10^−5 mol L^−1; for decrease of the intensity of the SFS band of HSA, tryptophan: Δλ = 60 nm
T1 construct: purchased Sigma-Aldrich
Description: In order to determine the binding sites of HSA when interacting with MCD and to evaluate possible changes in these sites, the fluorescence spectra of tyrosine and tryptophan groups of HSA in the presence of MCD were measured in the synchronous fluorescence scanning (SFS) mode. The positions of the SF spectra of protein amino acid residues depend on their microsolvation (micropolarity of the medium). Thus, SFS allows for obtaining data on the effect of complexation on the microenvironment of fluorophore groups of protein molecules.
Quenching of intrinsic HSA fluorescence was analyzed using the Stern–Volmer and Lehrer–Leavis relationships (see Equations (3) and (4)). The experimental dependences approximated by linear anamorphoses (R^2~0.9–0.98) were better in the coordinates of the Lehrer–Leavis model than in the Stern–Volmer model (the Stern–Volmer plots were nonlinear). The Lehrer–Leavis model assumes partial accessibility of HSA chromophores for quenching by MCD (the resulting quenching constants are shown in Table 6).
Absorption spectra were recorded on an SF-2000 spectrophotometer (Experimental-Construction Company “Spectrum”, St. Petersburg, Russia); fluorescence and fluorescence excitation spectra were recorded on a Fluorat-02-Panorama spectrofluorimeter (Group of Companies “Lumex”, St. Petersburg, Russia). The fluorescence and fluorescence excitation spectra were corrected for the spectral characteristics of the instrument (excitation channel signal) and sample transmission. Changes in the intrinsic fluorescence of HSA upon binding of MCD (in the presence of the dyes) were recorded in the synchronous fluorescence scanning (SFS) mode. In SFS mode, when registering spectra, a fixed difference Δλ= λfl − λex is maintained for the channels of excitation and registration. Synchronous scanning spectra were obtained at Δλ = 15 nm (fluorescence of tyrosine residues in the HSA molecule) and Δλ = 60 nm (fluorescence of tryptophan). The spectra were measured in 1 cm quartz semi-micro cells (Bio-Rad, Hercules, CA, USA).
The Stern–Volmer (Equation (3)) and Lehrer–Leavis (Equation (4)) dependences were used to analyze the results of measurements of HSA intrinsic fluorescence (synchronous scanning mode) in the presence of MCD [56, 57]. (3) I0/I=1 + KSV[Q] (4) I0/(I0−I)=1 /α+ 1/(αKSV[Q]) where I0 and I are the fluorescence intensities in the absence and in the presence of a quencher, respectively; [Q] is the quencher concentration; KSV is the Stern–Volmer quenching constant; and α is the proportion of fluorophores in the biomolecule available to the quencher in the Lehrer–Leavis model. […]
1. Spectral‐Fluorescent Titration
In experiments on spectral‐fluorescence titration, MCD 1–4 were dosed from their concentrated st ock solutions in EtOH. Microvolumes (~0.5–5 μL) were dosed into the measuring cell (dilution 1:500 – 1:1000).
In experiments with biomacromolecules, microvolumes of concentrated stock solutions of dsDNA, ssDNA and HSA were injected directly into the cells. Spectral‐fluorescent characteristics of MCD in complexes with biomacromolecules were studied by titration of dye solutions (cdye ~ 1 – 2 × 10–6 mol L–1) with increasing concentrations of biopolymers. Measurements of the intrinsic fluorescence of HSA in the presence of MCD were carried out at a constant concentration of HSA (cHSA ~ 2.0 × 10–5 mol L–1) by titration with increasing concentrations of dyes. After stirring, the absorption and fluorescence spectra of the dyes were recorded several times. Upon registration, the fluorescence and fl uorescence excitation spectra were corrected for the spectral characteristic of the excitation channel and for the absorption of […]
2. Fluorescence Quantum Yields
Determination of the fluorescence quantum yields of MCD 1–4 was performed using the standard […]

dsDNA = assay: Flash photolysis: triplet state of MCD in the presence of dsDNA; parameters: species or system chick; conditions: for k1, decay rate constant of the T state (first exponent) / k2, decay rate constant of the T state (second exponent): two-exponential decay
Description: Upon direct flash photoexcitation of deoxygenated solutions of MCD 1–4, signals corresponding to triplet–triplet (T–T) absorption were not observed due to the low efficiency of intersystem crossing to the triplet (T) state, in comparison with competing processes of nonradiative deactivation of excited states of dye molecules, which is common for MCD [41]. Complexation with dsDNA hinders these competing processes, which leads to an increase in the quantum yield of the T state of MCD. In the presence of dsDNA, under direct photoexcitation, the signals of T states of MCD 1–3 were detected, and their different T–T absorption spectra were measured (Figure 10).
Quantum yields of intersystem crossing to the triplet state (ΦST) of MCD 1–3 in the presence of dsDNA were estimated by flash photolysis using optical actinometry (see Materials and Methods). The obtained values of ΦST for MCD 1–3 were 2.6 ± 0.4%, 5.7 ± 0.8%, and 10.7 ± 1.5%, respectively.
The spectral–kinetic characteristics of the T state of MCD were studied by flash photolysis. The experiment was carried out on a setup with excitation by a xenon lamp (lamp flash energy ~50 J, duration τ1/2 = 10 μs). When registering T states, the solutions were deoxygenated using a vacuum setup. The manometric unit was used to determine the air pressure in a series of experiments on T state quenching by dissolved oxygen. The T state of MCD 4 in PBS solution in the presence of dsDNA was obtained by energy transfer from the triplet level of sodium naphthalene-2-sulfonate (ET~21,000 cm^−1 [83]). The quantum yields of T states (ΦT) of the dyes in the presence of dsDNA were estimated actinometrically. Dyes with known ΦT were used as actinometers: the xanthene dye Acid Red 87 (ΦT = 0.8 (aq); [84]) and the cyanine dye 3,3′-diethyl-9-methoxythiacarbocyanine iodide (ΦT = 0.16–0.20 in n-propanol; [85]).

T1 sequence (P02768 25-609): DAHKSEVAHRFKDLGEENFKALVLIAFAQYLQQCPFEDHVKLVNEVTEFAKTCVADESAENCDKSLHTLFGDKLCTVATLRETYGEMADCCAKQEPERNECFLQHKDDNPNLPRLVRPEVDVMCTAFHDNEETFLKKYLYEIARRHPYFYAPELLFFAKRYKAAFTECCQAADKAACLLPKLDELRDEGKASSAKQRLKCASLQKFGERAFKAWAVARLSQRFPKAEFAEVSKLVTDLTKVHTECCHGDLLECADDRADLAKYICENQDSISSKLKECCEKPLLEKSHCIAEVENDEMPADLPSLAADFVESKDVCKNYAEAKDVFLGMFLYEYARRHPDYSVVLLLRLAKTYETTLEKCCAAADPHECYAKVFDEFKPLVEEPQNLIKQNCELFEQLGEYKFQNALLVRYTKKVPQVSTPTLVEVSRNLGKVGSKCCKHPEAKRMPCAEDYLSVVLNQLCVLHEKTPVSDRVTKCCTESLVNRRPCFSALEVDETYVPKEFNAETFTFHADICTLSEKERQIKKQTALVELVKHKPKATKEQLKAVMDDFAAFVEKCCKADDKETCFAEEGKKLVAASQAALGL

Compound | KSV, Stern–Volmer quenching constant (Lehrer–Leavis model) (HSA; Trp, SFS Δλ = 60 nm) | α, proportion of fluorophores available to the quencher (Lehrer–Leavis model) (HSA; Trp, SFS Δλ = 60 nm) | KSV, Stern–Volmer quenching constant (Lehrer–Leavis model) (HSA; Tyr, SFS Δλ = 15 nm) | α, proportion of fluorophores available to the quencher (Lehrer–Leavis model) (HSA; Tyr, SFS Δλ = 15 nm) | decrease of the intensity of the SFS band of HSA, tyrosine (HSA) | decrease of the intensity of the SFS band of HSA, tryptophan (HSA) | k1, decay rate constant of the T state (first exponent) (dsDNA) | k2, decay rate constant of the T state (second exponent) (dsDNA) | kqO2, rate constant of triplet state quenching by dissolved oxygen (dsDNA; main (short-lived) component) | τT, lifetime of the T state (dsDNA)
CC[N+](CC)(CC)CCC[n+]1ccc(/C=C2\Sc3ccccc3N2C)c2ccc(O)cc21 [MCD 1] | 40400 L/mol | 0.40 | 21800 L/mol | 0.61 | 31% | 26% | ~ 9.9 × 10^3 s^−1 | ~2000 s⁻¹ |  | 
CCN1/C(=C/c2sc3ccccc3[n+]2CC)Sc2ccccc21 [MCD 3] | 6.12e+07 L/mol | 0.82 | 112000 L/mol | 0.15 | 11% | 6% | ~ 1.3 × 10^4 s^−1 | ~ 4 × 10^3 s^−1 | 3.6e+08 M⁻¹ s⁻¹ | 
CCN1/C(=C/c2ccc3ccccc3[n+]2CC)C=Cc2ccccc21 [MCD 4] | 21000 L/mol | 0.60 | 38200 L/mol | 0.33 | 21% | 22% |  |  |  | ~ 0.03 ms
